Results from PubChem BioAssay (NCI).
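Tested at 5 concentrations; 48 h exposure; 96-well plates; endpoints linearly interpolated, else capped at highest concentration. GI50 = concentration required for 50% inhibition of growth. TGI marks complete inhibition of growth.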

How the values were obtained:
Assay in all cases: inhibition of tumour cell growth, NCI panel, 48 h
786-0 renal = test system: 786-0 renal
A498 renal = test system: A498 renal
A549 NSCLC = test system: A549 NSCLC
ACHN renal = test system: ACHN renal
CAKI-1 renal = test system: CAKI-1 renal
CCRF-CEM leukemia = test system: CCRF-CEM leukemia
COLO 205 colon = test system: COLO 205 colon
DU-145 prostate = test system: DU-145 prostate
EKVX NSCLC = test system: EKVX NSCLC
HCC-2998 colon = test system: HCC-2998 colon
HCT-116 colon = test system: HCT-116 colon
HCT-15 colon = test system: HCT-15 colon
HL-60(TB) leukemia = test system: HL-60(TB) leukemia
HOP-62 NSCLC = test system: HOP-62 NSCLC
HOP-92 NSCLC = test system: HOP-92 NSCLC
HS 578T breast = test system: HS 578T breast
IGROV1 ovarian = test system: IGROV1 ovarian
KM12 colon = test system: KM12 colon
LOX IMVI melanoma = test system: LOX IMVI melanoma
M14 melanoma = test system: M14 melanoma
MALME-3M melanoma = test system: MALME-3M melanoma
MCF7 breast = test system: MCF7 breast
MDA-MB-231 breast = test system: MDA-MB-231 breast
MDA-MB-435 = test system: MDA-MB-435
MOLT-4 leukemia = test system: MOLT-4 leukemia
NCI-H226 lung = test system: NCI-H226 lung
NCI-H23 lung = test system: NCI-H23 lung
NCI-H460 lung = test system: NCI-H460 lung
NCI/ADR-RES ovarian = test system: NCI/ADR-RES ovarian
OVCAR-3 ovarian = test system: OVCAR-3 ovarian
OVCAR-4 ovarian = test system: OVCAR-4 ovarian
OVCAR-5 ovarian = test system: OVCAR-5 ovarian
OVCAR-8 ovarian = test system: OVCAR-8 ovarian
PC-3 prostate = test system: PC-3 prostate
RPMI-8226 leukemia = test system: RPMI-8226 leukemia
RXF 393 renal = test system: RXF 393 renal
SF-268 CNS = test system: SF-268 CNS
SF-295 CNS = test system: SF-295 CNS
SF-539 CNS = test system: SF-539 CNS
SK-MEL-28 melanoma = test system: SK-MEL-28 melanoma
SK-MEL-5 melanoma = test system: SK-MEL-5 melanoma
SK-OV-3 ovarian = test system: SK-OV-3 ovarian
SN12C renal = test system: SN12C renal
SNB-19 CNS = test system: SNB-19 CNS
SNB-75 CNS = test system: SNB-75 CNS
SW-620 colon = test system: SW-620 colon
T-47D breast = test system: T-47D breast
U251 CNS = test system: U251 CNS
UACC-257 melanoma = test system: UACC-257 melanoma
UACC-62 melanoma = test system: UACC-62 melanoma
UO-31 renal = test system: UO-31 renal
NCI-H522 lung = test system: NCI-H522 lung
SR leukemia = test system: SR leukemia
TK-10 renal = test system: TK-10 renal

`NC(=NCc1ccccc1)C(N=Nc1ccccc1)C(=O)NCc1ccccc1` (stereo not drawn) was tested, and the GI50 (786-0 renal) was 12.1 µM, the TGI (786-0 renal) was 30 µM and the GI50 (A498 renal) was 6.17 µM. For the same compound, the TGI (A498 renal) was 23 µM, the GI50 (A549 NSCLC) was 3.05 µM and the TGI (A549 NSCLC) was 10.1 µM. The GI50 (ACHN renal) was 18.1 µM, the TGI (ACHN renal) was 39.3 µM and the GI50 (CAKI-1 renal) was 3.44 µM. It also gave a TGI (CAKI-1 renal) of 15.2 µM, a GI50 (CCRF-CEM leukemia) of 3.54 µM and a TGI (CCRF-CEM leukemia) of 84.4 µM. The GI50 (COLO 205 colon) was 14.8 µM, the TGI (COLO 205 colon) was 37.2 µM and the GI50 (DU-145 prostate) was 2.28 µM. It also gave a TGI (DU-145 prostate) of 6.01 µM, a GI50 (EKVX NSCLC) of 4.49 µM and a TGI (EKVX NSCLC) of 23.5 µM. The GI50 (HCC-2998 colon) was 11.5 µM, the TGI (HCC-2998 colon) was 29.9 µM and the GI50 (HCT-116 colon) was 1.76 µM. The TGI (HCT-116 colon) was 3.47 µM, the GI50 (HCT-15 colon) was 8.19 µM and the TGI (HCT-15 colon) was 67.3 µM. The GI50 (HL-60(TB) leukemia) was 4.64 µM, the TGI (HL-60(TB) leukemia) was 27.4 µM and the GI50 (HOP-62 NSCLC) was 12.6 µM. It also gave a TGI (HOP-62 NSCLC) of 29.6 µM, a GI50 (HOP-92 NSCLC) of 1.78 µM and a TGI (HOP-92 NSCLC) of 7.38 µM. It also gave a GI50 (HS 578T breast) of 2.92 µM, a TGI (HS 578T breast) of 13.9 µM and a GI50 (IGROV1 ovarian) of 3.42 µM. The TGI (IGROV1 ovarian) was 19.8 µM, the GI50 (KM12 colon) was 2.04 µM and the TGI (KM12 colon) was 4.65 µM. The GI50 (LOX IMVI melanoma) was 8.36 µM, the TGI (LOX IMVI melanoma) was 24.3 µM and the GI50 (M14 melanoma) was 5.71 µM. For the same compound, the TGI (M14 melanoma) was 22.3 µM, the GI50 (MALME-3M melanoma) was 21.5 µM and the TGI (MALME-3M melanoma) was 48.2 µM. For the same compound, the GI50 (MCF7 breast) was 12 µM, the TGI (MCF7 breast) was 32 µM and the GI50 (MDA-MB-231 breast) was 14.4 µM. For the same compound, the TGI (MDA-MB-231 breast) was 35.2 µM, the GI50 (MDA-MB-435) was 5.51 µM and the TGI (MDA-MB-435) was 25.5 µM. The GI50 (MOLT-4 leukemia) was 5.53 µM, the TGI (MOLT-4 leukemia) was greater than 100 µM and the GI50 (NCI-H226 lung) was 21.3 µM. For the same compound, the TGI (NCI-H226 lung) was 52.6 µM, the GI50 (NCI-H23 lung) was 5 µM and the TGI (NCI-H23 lung) was 21.9 µM. It also gave a GI50 (NCI-H460 lung) of 2.37 µM, a TGI (NCI-H460 lung) of 6.18 µM and a GI50 (NCI/ADR-RES ovarian) of 6.46 µM. For the same compound, the TGI (NCI/ADR-RES ovarian) was 23.8 µM, the GI50 (OVCAR-3 ovarian) was 1.93 µM and the TGI (OVCAR-3 ovarian) was 3.75 µM. It also gave a GI50 (OVCAR-4 ovarian) of 18.5 µM, a TGI (OVCAR-4 ovarian) of 45.1 µM and a GI50 (OVCAR-5 ovarian) of 18 µM. It also gave a TGI (OVCAR-5 ovarian) of 44.7 µM, a GI50 (OVCAR-8 ovarian) of 3.56 µM and a TGI (OVCAR-8 ovarian) of 15.2 µM. It also gave a GI50 (PC-3 prostate) of 1.84 µM, a TGI (PC-3 prostate) of 4.02 µM and a GI50 (RPMI-8226 leukemia) of 9.31 µM. For the same compound, the TGI (RPMI-8226 leukemia) was greater than 100 µM, the GI50 (RXF 393 renal) was 12.9 µM and the TGI (RXF 393 renal) was 27 µM. It also gave a GI50 (SF-268 CNS) of 2.53 µM, a TGI (SF-268 CNS) of 6.44 µM and a GI50 (SF-295 CNS) of 1.9 µM. The TGI (SF-295 CNS) was 5.16 µM, the GI50 (SF-539 CNS) was 16.6 µM and the TGI (SF-539 CNS) was 37.1 µM. It also gave a GI50 (SK-MEL-28 melanoma) of 20.4 µM, a TGI (SK-MEL-28 melanoma) of 45.7 µM and a GI50 (SK-MEL-5 melanoma) of 23.4 µM. It also gave a TGI (SK-MEL-5 melanoma) of 67.3 µM, a GI50 (SK-OV-3 ovarian) of 20.1 µM and a TGI (SK-OV-3 ovarian) of 47.7 µM. For the same compound, the GI50 (SN12C renal) was 22.6 µM, the TGI (SN12C renal) was 87 µM and the GI50 (SNB-19 CNS) was 13.2 µM. It also gave a TGI (SNB-19 CNS) of 31.5 µM, a GI50 (SNB-75 CNS) of 13.2 µM and a TGI (SNB-75 CNS) of 27.7 µM. The GI50 (SW-620 colon) was 1.83 µM, the TGI (SW-620 colon) was 3.62 µM and the GI50 (T-47D breast) was 13.6 µM. For the same compound, the TGI (T-47D breast) was 35.4 µM, the GI50 (U251 CNS) was 5.75 µM and the TGI (U251 CNS) was 25.9 µM. It also gave a GI50 (UACC-257 melanoma) of 26.8 µM, a TGI (UACC-257 melanoma) of 69.5 µM and a GI50 (UACC-62 melanoma) of 16.5 µM. For the same compound, the TGI (UACC-62 melanoma) was 37.6 µM, the GI50 (UO-31 renal) was 5.87 µM and the TGI (UO-31 renal) was 29.1 µM.

In the case of `CCCc1cn2c(/C=N/N=C(N)N)c(-c3cccc([N+](=O)[O-])c3)nc2s1`, the TGI (A498 renal) is reported as 33.2 µM, the TGI (ACHN renal) is reported as 3.38 µM and the TGI (CAKI-1 renal) is reported as 3.83 µM. It also gave a TGI (CCRF-CEM leukemia) of 2.32 µM, a TGI (COLO 205 colon) of 4.35 µM and a TGI (HL-60(TB) leukemia) of 4.75 µM. For the same compound, the TGI (HOP-92 NSCLC) was 32.4 µM, the TGI (HS 578T breast) was 7.51 µM and the TGI (KM12 colon) was 3.57 µM. The TGI (MALME-3M melanoma) was 2.82 µM, the TGI (MDA-MB-231 breast) was 3.04 µM and the TGI (MDA-MB-435) was 3.46 µM. For the same compound, the TGI (MOLT-4 leukemia) was 2.81 µM, the TGI (NCI-H226 lung) was 3.28 µM and the TGI (NCI-H460 lung) was 5.37 µM. The TGI (NCI-H522 lung) was 4.47 µM, the TGI (NCI/ADR-RES ovarian) was 10.5 µM and the TGI (PC-3 prostate) was 8.19 µM. For the same compound, the TGI (RPMI-8226 leukemia) was 4.36 µM, the TGI (SF-539 CNS) was 3.15 µM and the TGI (SK-MEL-28 melanoma) was 3.18 µM. The TGI (SK-MEL-5 melanoma) was 3.9 µM, the TGI (SK-OV-3 ovarian) was 5.3 µM and the TGI (SN12C renal) was 2.58 µM. The TGI (SNB-19 CNS) was 4.86 µM, the TGI (SNB-75 CNS) was 3.1 µM and the TGI (SR leukemia) was 3.89 µM. It also gave a TGI (SW-620 colon) of 8.42 µM, a TGI (T-47D breast) of 4.99 µM and a TGI (TK-10 renal) of 0.405 µM. For the same compound, the TGI (UACC-62 melanoma) was 3.15 µM.
